Test results as given in patent US8450361B2, “Substituted indole and azaindole oxoacetyl piperazinamide derivatives” (priority 2010, dated 2013).

System: HIV-1
Experiment: Single-round infectious HIV-1 luciferase reporter virus infection of HeLa CD4 cells
Format: cell-based
Conditions: Human immunodeficiency virus 1, HeLa, 72 h, read-out: EC50 Group from Table 1
Method: • Virus production—Human embryonic Kidney cell line, 293T, was propagated in Dulbecco's Modified Eagle Medium (Invitrogen, Carlsbad, Calif.) containing 10% fetal Bovine serum (FBS, Sigma, St. Louis, Mo.). • Virus infection—Human epithelial cell line, HeLa, expressing the HIV-1 receptor CD4 was propagated in Dulbecco's Modified Eagle Medium (Invitrogen, Carlsbad, Calif.) containing 10% fetal Bovine serum (FBS, Sigma, St. Louis, Mo.) and supplemented with 0.2 mg/mL Geneticin (Invitrogen, Carlsbad, Calif.). Virus—Single-round infectious reporter virus was produced by co-transfecting human embryonic Kidney 293 cells with an HIV-1 envelope DNA expression vector and a proviral cDNA containing an envelope deletion mutation and the luciferase reporter gene inserted in place of HIV-1 nef sequences (Chen et al, Ref 41). Transfections were performed using lipofectAMINE PLUS reagent as described by the manufacturer (Invitrogen, Carlsbad, Calif.). Experiment • 1. HeLa CD4 cells were plated in 96 well plates at a cell density of 1×10^4 cells per well in 100 μl Dulbecco's Modified Eagle Medium containing 10% fetal Bovine serum and incubated overnight. • 2. Compound was added in a 2 μl dimethylsulfoxide solution, so that the final assay concentration would be ≦10 μM. • 3. 100 μl of single-round infectious reporter virus in Dulbecco's Modified Eagle Medium was then added to the plated cells and compound at an approximate multiplicity of infection (MOI) of 0.01, resulting in a final volume of 200 μl per well. • 4. Virally-infected cells were incubated at 37 degrees Celsius, in a CO2 incubator, and harvested 72 h after infection. • 5. Viral infection was monitored by measuring luciferase expression from viral DNA in the infected cells using a luciferase reporter gene assay kit, as described by the manufacturer (Roche Molecular Biochemicals, Indianapolis, Ind.). Infected cell supernatants were removed and 50 μl of lysis buffer was added per well. After 15 minutes, 50 μl of freshly-reconstituted luciferase assay reagent was added per well. Luciferase activity was then quantified by measuring luminescence using a Wallac microbeta scintillation counter. • 6. The percent inhibition for each compound was calculated by quantifying the level of luciferase expression in cells infected in the presence of each compound as a percentage of that observed for cells infected in the absence of compound and subtracting such a determined value from 100. • 7. An EC50 provides a method for comparing the antiviral potency of the compounds of this invention. The effective concentration for fifty percent inhibition (EC50) was calculated with the Microsoft Excel Xlfit curve fitting software. For each compound, curves were generated from percent inhibition calculated at 10 different concentrations by using a four parameter logistic model (model 205). Table 1 is the key for the data in Table 2. Results

Row | Compound | EC50
1 | C[C@@H]1CN(C(=O)c2ccccc2)CCN1C(=O)C(=O)c1c[nH]c2c(NC(=O)NCCCCCCNC(=O)NCCOCCOCCN)cccc12 [P-C-111] | < 1000 nM
2 | C[C@@H]1CN(C(=O)c2ccccc2)CCN1C(=O)C(=O)c1c[nH]c2c(NC(=O)NCCCCNC(=O)Nc3cccc(B(O)O)c3)cccc12 [P-C-112] | < 1000 nM
3 | C[C@@H]1CN(C(=O)c2ccccc2)CCN1C(=O)C(=O)c1c[nH]c2c(NC(=O)NCCCCCCNC(=O)Nc3cccc(B(O)O)c3)cccc12 [P-C-113] | < 1000 nM
4 | C[C@@H]1CN(C(=O)c2ccccc2)CCN1C(=O)C(=O)c1c[nH]c2c(NC(=O)NCCCCCCCCNC(=O)Nc3cccc(B(O)O)c3)cccc12 [P-C-114] | < 1000 nM
5 | COC(=O)NCCCCNC(=O)Nc1cccc2c(C(=O)C(=O)N3CCN(C(=O)c4ccccc4)C[C@H]3C)cn(C(=O)NCCCCNC(=O)OC)c12 [P-C-115] | < 1000 nM
6 | C[C@@H]1CN(C(=O)c2ccccc2)CCN1C(=O)C(=O)c1c[nH]c2c(NC(=O)Nc3cccc(B(O)O)c3)cccc12 [P-C-202] | < 1000 nM
7 | C[C@@H]1CN(C(=O)c2ccccc2)CCN1C(=O)C(=O)c1c[nH]c2c(NC(=O)Nc3ccc(B(O)O)cc3)cccc12 [P-C-204] | < 1000 nM
8 | C[C@@H]1CN(C(=O)c2ccccc2)CCN1C(=O)C(=O)c1c[nH]c2c(NC(=O)NCCOCCOCCN)cccc12 [P-C-205] | < 1000 nM
9 | C[C@@H]1CN(C(=O)c2ccccc2)CCN1C(=O)C(=O)c1c[nH]c2c(NC(=O)NCCOCCOCCNC(=O)c3cccc(B(O)O)c3)cccc12 [P-C-401] | < 1000 nM
10 | C[C@@H]1CN(C(=O)c2ccccc2)CCN1C(=O)C(=O)c1c[nH]c2c(NC(=O)NCCOCCOCCNC(=O)c3ccc(B(O)O)cc3)cccc12 [P-C-402] | < 1000 nM
11 | CC(C)COC(=O)Nc1cccc2c(C(=O)C(=O)N3CCN(C(=O)c4ccccc4)C[C@H]3C)c[nH]c12 [P-D-1] | < 1000 nM
12 | C[C@@H]1CN(C(=O)c2ccccc2)CCN1C(=O)C(=O)c1c[nH]c2c(NS(C)(=O)=O)cccc12 [P-E-1] | < 1000 nM
13 | C[C@@H]1CN(C(=O)c2ccccc2)CCN1C(=O)C(=O)c1cn(S(C)(=O)=O)c2c(NS(C)(=O)=O)cccc12 [P-E-2] | < 1000 nM
14 | Cc1ccc(S(=O)(=O)Nc2cccc3c(C(=O)C(=O)N4CCN(C(=O)c5ccccc5)C[C@H]4C)c[nH]c23)cc1 [P-E-3] | 1000 to 5000 nM
15 | Cc1ccc(S(=O)(=O)Nc2cccc3c(C(=O)C(=O)N4CCN(C(=O)c5ccccc5)C[C@H]4C)cn(S(=O)(=O)c4ccc(C)cc4)c23)cc1 [P-E-4] | < 1000 nM
16 | C[C@@H]1CN(C(=O)c2ccccc2)CCN1C(=O)C(=O)c1c[nH]c2c(NS(=O)(=O)N(C)C)cccc12 [P-E-5] | < 1000 nM
17 | CC(C)/N=C(/Nc1cccc2c(C(=O)C(=O)N3CCN(C(=O)c4ccccc4)C[C@H]3C)c[nH]c12)NC(C)C [P-F-1] | < 1000 nM
18 | CC/N=C(\NCCCN(C)C)Nc1cccc2c(C(=O)C(=O)N3CCN(C(=O)c4ccccc4)C[C@H]3C)c[nH]c12 [P-F-2] | < 1000 nM
19 | C[C@@H]1CN(C(=O)c2ccccc2)CCN1C(=O)C(=O)c1c[nH]c2c(N3CCN(CCCl)C3=O)cccc12 [P-G-1] | < 1000 nM
20 | CC1NC(=O)N(c2cccc3c(C(=O)C(=O)N4CCN(C(=O)c5ccccc5)C[C@H]4C)c[nH]c23)C1=O (stereo partly drawn) [P-G-2] | < 1000 nM
21 | CCOC(=O)CC[C@@H]1NC(=O)N(c2cccc3c(C(=O)C(=O)N4CCC(=C(C#N)c5ccccc5)CC4)c[nH]c23)C1=O [P-G-3] | < 1000 nM

Row | Compound | EC50
22 | CNCCN1CCN(c2cccc3c(C(=O)C(=O)N4CCN(C(=O)c5ccccc5)C[C@H]4C)c[nH]c23)C1=O [P-H-1] | < 1000 nM
23 | C[C@@H]1CN(C(=O)c2ccccc2)CCN1C(=O)C(=O)c1c[nH]c2c(N3CCN(CCN(C)C)C3=O)cccc12 [P-H-2] | < 1000 nM
24 | CNCCCN(C)CCN1CCN(c2cccc3c(C(=O)C(=O)N4CCN(C(=O)c5ccccc5)C[C@H]4C)c[nH]c23)C1=O [P-H-3] | < 1000 nM
25 | C[C@@H]1CN(C(=O)c2ccccc2)CCN1C(=O)C(=O)c1c[nH]c2c(NC(=O)CO)cccc12 [P-I-1] | < 1000 nM
26 | C[C@@H]1CN(C(=O)c2ccccc2)CCN1C(=O)C(=O)c1c[nH]c2c(NC(=O)NCCC(=O)O)cccc12 [P-I-2] | < 1000 nM
27 | N#CC(=C1CCN(C(=O)C(=O)c2c[nH]c3c(NC(=O)NCCC(=O)O)cccc23)CC1)c1ccccc1 [P-I-3] | < 1000 nM
28 | C[C@@H]1CN(C(=O)c2ccccc2)CCN1C(=O)C(=O)c1c[nH]c2c(NC(=O)NCCCC(=O)O)cccc12 [P-I-4] | < 1000 nM
29 | N#CC(=C1CCN(C(=O)C(=O)c2c[nH]c3c(NC(=O)NCCCC(=O)O)cccc23)CC1)c1ccccc1 [P-I-5] | < 1000 nM
30 | C[C@@H]1CN(C(=O)c2ccccc2)CCN1C(=O)C(=O)c1c[nH]c2c(NC(=O)NCCCCCC(=O)O)cccc12 [P-I-6] | < 1000 nM
31 | N#CC(=C1CCN(C(=O)C(=O)c2c[nH]c3c(NC(=O)NCCCCCC(=O)O)cccc23)CC1)c1ccccc1 [P-I-7] | < 1000 nM
32 | N#CC(=C1CCN(C(=O)C(=O)c2c[nH]c3c(NC(=O)NC(CCC(=O)O)C(=O)O)cccc23)CC1)c1ccccc1 (stereo not drawn) [P-I-8] | < 1000 nM
33 | C[C@@H]1CN(C(=O)c2ccccc2)CCN1C(=O)C(=O)c1c[nH]c2c(NC(=O)Nc3ccccc3C(=O)O)cccc12 [P-I-9] | < 1000 nM
34 | N#CC(=C1CCN(C(=O)C(=O)c2c[nH]c3c(NC(=O)Nc4ccccc4C(=O)O)cccc23)CC1)c1ccccc1 [P-I-10] | < 1000 nM
35 | C[C@@H]1CN(C(=O)c2ccccc2)CCN1C(=O)C(=O)c1c[nH]c2c(NC(=O)Nc3cccc(C(=O)O)c3)cccc12 [P-I-11] | < 1000 nM
36 | N#CC(=C1CCN(C(=O)C(=O)c2c[nH]c3c(NC(=O)Nc4cccc(C(=O)O)c4)cccc23)CC1)c1ccccc1 [P-I-12] | < 1000 nM
37 | N#CC(=C1CCN(C(=O)C(=O)c2c[nH]c3c(NC(=O)Nc4ccc(C(=O)O)cc4)cccc23)CC1)c1ccccc1 [P-I-13] | < 1000 nM
38 | C[C@@H]1CN(C(=O)c2ccccc2)CCN1C(=O)C(=O)c1c[nH]c2c(NC(=O)Nc3cc(C(=O)O)cc(C(=O)O)c3)cccc12 [P-I-14] | < 1000 nM
39 | N#CC(=C1CCN(C(=O)C(=O)c2c[nH]c3c(NC(=O)Nc4cc(C(=O)O)cc(C(=O)O)c4)cccc23)CC1)c1ccccc1 [P-I-15] | < 1000 nM
40 | O=C(O)CCCNC(=O)Nc1ncc(F)c2c(C(=O)C(=O)N3CCN(C(=O)c4ccccc4)CC3)c[nH]c12 [P-I-16] | < 1000 nM
41 | N#CC(=C1CCN(C(=O)C(=O)c2c[nH]c3c(N4C(=O)N[C@@H](CCC(=O)O)C4=O)cccc23)CC1)c1ccccc1 [P-I-17] | < 1000 nM
42 | C[C@@H]1CN(C(=O)c2ccccc2)CCN1C(=O)C(=O)c1c[nH]c2c(NC(=O)NCC(=O)O)cccc12 [P-I-18] | < 1000 nM
